Literature values in patent publication US11504411B1, “Herbal dietary supplement supporting healthy immune function” (Progressing Bodies, Inc., priority 2021, dated 2022).

What was measured:
[1] = tested on: herpes simplex virus; conditions: within just one hour
[2] = tested on: norovirus; conditions: over the course of less than one hour

Row | Structure (SMILES) | singlet oxygen quenching strength relative to CoQ10 (versus CoQ10) | singlet oxygen quenching strength relative to green tea catechins (versus green tea catechins) | singlet oxygen quenching strength relative to vitamin C (versus vitamin C) | herpes simplex virus inactivated [1] | inactivation of norovirus [2]
1 | CC1=C(/C=C/C(C)=C/C=C/C(C)=C/C=C/C=C(C)/C=C/C=C(C)/C=C/C2=C(C)C(=O)[C@@H](O)CC2(C)C)C(C)(C)C[C@H](O)C1=O [astaxanthin] | 800 times | 550 times | 6,000 times | – | –
2 | Cc1ccc(C(C)C)cc1O [carvacrol] | – | – | – | 90% | inactivated norovirus
3 | Cc1ccc(C(C)C)c(O)c1 [thymol] | – | – | – | 90% | –
